Assay results published in paper PMC6980506, “Comparative pharmacokinetics and pharmacodynamics of the advanced Retinol-Binding Protein 4 antagonist in dog and cynomolgus monkey” (PLoS ONE, 2020).
Like-named read-outs stand apart in the source and are kept apart here.

Assay: Single dose pharmacokinetic study in beagle dog
Assay type: in vivo
Conditions: male, beagle, plasma; for concentration at 8 h / concentration at 12 h / concentration at 24 h / concentration at 36 h / concentration at 48 h / concentration at 0.25 h / concentration at 0.5 h / concentration at 1 h / concentration at 2 h / concentration at 4 h / concentration at 10 h: male beagle dog; for half-life: read-out: T1/2, apparent terminal half-life (converted)
Procedure: Pharmacokinetic studies were conducted in male beagle dogs and male cynomolgus monkeys at SRI International, Menlo Park, CA. General procedures for animal care and housing were in accordance with the National Research Council (NRC) Guide for the Care and Use of Laboratory Animals (1996) and the Animal Welfare Standards incorporated in 9 CFR Part 3, 1991 and complied with guidelines set forth by the ARVO Animal Statement for the Use of Animals in Ophthalmic and Vision Research. During the course of the PK experiments, cynomolgus monkeys were individually housed in stainless steel primary enclosures in an AAALAC-accredited facility. Animals were fed a commercial monkey chow, and supplemental food was provided (fresh fruits, vegetables, seeds, and nuts). Reverse osmosis-purified drinking water was available at all times. Cynomolgus monkeys were maintained on a 12:12 hour light:dark cycle at the 64–84°F temperature and 30–70% humidity. Monkeys had access to enrichment opportunities (grooming devices, foraging devices, activity panels and mirrors) and were provided auditory stimuli and human interaction enrichment throughout the study. Blood samples were collected by venipuncture of a peripheral vein. Animals were acclimated to the squeeze back mechanism in their home cage by repeated, short periods of restraint during general husbandry procedures for at least 2 weeks prior to dosing. Animal were not removed from their cages for collection, and no anesthesia/analgesic agents were used for blood collection. […] For PK experiments, beagle dogs were individually housed in enclosed run (≥ 4 ft x 6 ft). Dogs were exposed to their daily ration of food, Harlan Teklad 2025C Certified Global 25% Protein Dog Diet. Water was provided from the public water supply (municipal tap water) ad libitum. Dogs were maintained on a 12:12 hour light:dark cycle at the 72–73°F temperature and 40–71% humidity. Every effort was made to minimize, if not eliminate, pain and suffering in all animals in this study. No restraining devices were used in blood collecting procedures. Dogs were gentle hand-held to restrain by trained technicians with the dogs foreleg extended for sample collection of blood from cephalic vein. Animals were awake during blood sample collection with no anesthesia/analgesic agents used, and positive reinforcement by the technician was provided following collection. […] All dogs were released back to the colony after the study was completed. Male beagle dogs and male cynomolgus monkey received a single i.v. dose of a test compound at 0.5 mg kg^−1 (dog) and 1 mg kg^−1 (monkey) or a single p.o. dose of a test compound of at 2 mg kg^−1 (dog) and 5 mg kg^−1 (monkey). The number of animals that was used in PK experiments is 3 per study group. Intravenous administration vehicle was 3% DMA/45% PEG300/12% ethanol/40% sterile water; p.o. vehicle was 2% Tween 80 in 0.9% saline. […] Blood samples were processed to plasma. Following protein extraction with acetonitrile, compound concentrations in plasma were measured by LC-MS/MS. The plasma drug level data were analyzed using WinNonlin software package; Model 201 (for i.v. bolus administration);was used for the analysis of i.v. data, and Model 200 (for extravascular administration) was used for the analysis of the p.o. data. Aliquots of pre-dose plasma samples, as well as aliquots of plasma PK samples, were used for the analysis of the plasmabiomarker, RBP4.

[1] = dog, iv, 0.5 mg/kg, iv 0.5 mg/kg, read-out: Plasma level, Mean
[2] = dog, iv, 0.5 mg/kg, iv 0.5 mg/kg, read-out: Plasma level, Individual animals
[3] = dog, po, 2 mg/kg, po 2 mg/kg, read-out: Plasma level, Individual animals
[4] = dog, po, 2 mg/kg, po 2 mg/kg, read-out: Plasma level, Mean
[5] = iv, Dog, 0.5 mg kg^−1 i.v., mean ± SD, n=3
[6] = po, Dog, 2.0 mg kg^−1 p.o., mean ± SD, n=3

Q: What does the source list for Cc1cc(C(=O)O)nc(N2C[C@H]3C[C@@H](c4ccccc4C(F)(F)F)C[C@H]3C2)n1 [BPN-14136]?
A: concentration at 8 h [1]: 209 ng/mL; concentration at 12 h [1]: 107 ng/mL; concentration at 24 h [2]: 169 ng/mL; concentration at 24 h [1]: 175 ng/mL; concentration at 36 h [2]: 33.3 ng/mL; concentration at 36 h [1]: 41 ng/mL; concentration at 48 h [2]: 92.8 ng/mL; concentration at 48 h [1]: 95.9 ng/mL; bioavailability (dog, oral, 2 mg kg^−1, Dog, 2.0 mg kg^−1 p.o. vs 0.5 mg kg^−1 i.v., read-out: %F, bioavailability): ~84%; concentration at 0.25 h [3]: 7100 ng/mL; concentration at 0.25 h [4]: 7090 ng/mL; concentration at 0.5 h [3]: 6340 ng/mL; concentration at 0.5 h [4]: 6720 ng/mL; concentration at 1 h [3]: 6630 ng/mL; concentration at 1 h [4]: 5940 ng/mL; concentration at 2 h [3]: 3600 ng/mL; concentration at 2 h [4]: 4120 ng/mL; concentration at 4 h [3]: 1790 ng/mL; concentration at 4 h [4]: 2140 ng/mL; concentration at 8 h [3]: 855 ng/mL; concentration at 8 h [4]: 904 ng/mL; concentration at 10 h [3]: 407 ng/mL; concentration at 10 h [4]: 559 ng/mL; concentration at 12 h [3]: 453 ng/mL; concentration at 12 h [4]: 532 ng/mL; concentration at 24 h [3]: 330 ng/mL; concentration at 24 h [4]: 383 ng/mL; concentration at 36 h [3]: 82.4 ng/mL; concentration at 36 h [4]: 94.2 ng/mL; concentration at 48 h [4]: 126 ng/mL; AUC(0-inf) [5]: 10700 ± 500 ng·h/mL; AUC(0-t) [5]: 10300 ± 500 ng·h/mL; clearance (iv, Dog, 0.5 mg kg^−1 i.v., mean ± SD, n=3, read-out: CL, total body clearance (converted)): 0.783 mL/min/kg; Cmax (iv, Dog, 0.5 mg kg^−1 i.v., mean ± SD, n=3, read-out: Cmax, maximum observed concentration at first time point): 2700 ± 100 ng/mL; half-life [5]: 2.6 ± 0.2 h; Vd (iv, Dog, 0.5 mg kg^−1 i.v., mean ± SD, n=3, read-out: Vss, volume of distribution at steady state): 0.622 ± 0.0034 L/kg; AUC(0-inf) [6]: 35900 ± 4400 ng·h/mL; AUC(0-t) [6]: 35400 ± 400 ng·h/mL; Tmax [6]: 0.33 ± 0.14 h; Cmax (po, Dog, 2.0 mg kg^−1 p.o., mean ± SD, n=3, read-out: Cmax): 7500 ± 200 ng/mL; half-life [6]: 2.9 ± 0.4 h
